Experimental findings from PMC11493595, “Stretching the structural envelope of imatinib to reduce β-amyloid production by modulating both β- and γ-secretase cleavages of APP” (Frontiers in Chemistry, 2024) are described below.

Like-named read-outs stand apart in the source and are kept apart here.

Series [1] deals with N2a695 cells. Nature of the series: Aβ38, Aβ40, Aβ42 in conditioned media of N2a695 cells, MSD ELISA. It is filed as cell-based. Particulars: N2a695 cell supernatant, 5 h, single experiment.
For series [2], the system named is N2a695 cells. Described as above. It is filed as cell-based. The conditions noted are these: N2a695 cell supernatant, 5 h, single experiment. As for the experimental part: (§1) N2a695 were cultured in 1:1 OptiMem Reduced Serum Media (Life Technologies): Dulbecco’s Modified Eagle Medium ([+] 4.5 g/L D-glucose [+] L-Glutamine; [−] Sodium pyruvate (Life Technologies) supplemented with 5% fetal bovine serum, 0.4% Penstrep and 0.4% Geneticin and incubated at 37°C in 5% CO2. Antibodies were obtained from The Laboratory of Molecular and Cellular Neuroscience at The Rockefeller University. Human Aβ40 and Aβ42 ELISA plates (Life Technologies) and Plus MSD (Mesoscale Discovery) plates for Aβ Peptide (Aβ38, Aβ40 and Aβ42) Panel 1 (6E10) Kit (Catalog number K15200G) were obtained from Thermo Fisher, Life Technologies and Meso Scale Discovery.
(§2) N2a695 cells were used to screen all new compounds and in the follow-up studies with compounds found active in the preliminary screen. In a typical experiment, 6-well tissue culture plates (Corning) were seeded at 4.0 × 10^5–4.5 × 10^5 N2a695 cells/mL, 2 mL/well for overnight incubation. When cells were >95% confluent, media were exchanged with fresh media containing 10 µM solutions of compounds or DMSO carrier alone and cells were incubated at 37°C in 5% CO2 for 5 h. Culture media were collected and soluble Aβ concentrations in the media were determined by ELISA or MSD plates for human Aβ peptides as per manufacturer instructions. Signals for Aβ were measured using Perkin Elmer Envision and SQ120 MSD ELISA reader. Follow-up studies with N2a695 cells were performed similarly.
Similarly, we evaluated all IMTi-1 and IMTi-2 analogs, including the Boc-protected compounds, using N2a695 cells. […] To further examine the activities of the active analogs and whether IMTi’s has any bias on amyloidogenic vs. nonamyloidogenic cleavage of APP, we retested dozens of IMTi-1 and 2 analogs, including several found active in the screening assay and some tested for the first time using N2a695 cells as above, and performed MSD ELISA of the conditioned media to measure Aβ40, Aβ38, and Aβ42 peptides simultaneously.
This is another data set of the same source.

In series [3] the test system is β- and γ-cleavages of APP. The series is described as follows: Aβ in N2a cells transiently transfected with APP-FL or APP99 (APP-βCTF): BACE vs γ-secretase cleavage. The conditions noted are these: N2a cells transiently transfected with APP695 (APP-FL) or APP C99, 5 h. It is filed as cell-based. As for the experimental part: To determine effects of compounds on BACE1 vs. GS inhibition, we used N2a cells transiently transfected with full length APP (APP-FL) or with APP99 (APP-βCTF) as described previously ([Netzer et al., 2017]; [Sun et al., 2019]). After 48 h, media were removed and fresh media containing compound 1a and analogs were added. Following 5 h of incubation, cell supernatants were collected, and analyzed using MSD-ELISA for Aβ and sAPPα and western blot for sAPPβ.
We focused on IMTi-1 and its analogs 1d, 1f and 1p. […] To test whether these compounds lower Aβ levels by affecting the BACE and/or γ-secretase cleavages, we transfected wild-type (wt) cells with APP-FL and APP βCTF (C99), respectively, and incubated the cells with IMTi-1 (isomer) and analogs 1d, 1f and 1p. We used BACE inhibitor, MK8931, and γ-secretase inhibitor, DAPT, as controls and performed the experiments and processed the results as described previously ([Sun et al., 2019]).

Series [4] is described as follows: In vivo brain permeability and retention, LC-MS/MS of brain and plasma. The arrangement: species or system C57BL/6J WT mice. The conditions noted are these: for concentration at 4 h: C57BL/6J, mouse, ip, 2 months old WT mice, 50 mg/kg i.p., 4 h after injection, mesylate salt. How it is done: All procedures involving animals were approved by The Rockefeller University Institutional Animal Care and Use Committee and were in accordance with the National Institutes of Health guidelines. […] Mice were euthanized 4 h post drug administration and brain hemispheres and plasma were harvested and collected in pre-weighted tubes and snap-frozen in liquid nitrogen. To measure brain and plasma concentrations of the specific compounds, mouse brain tissue was homogenized and extracted using Ethanol, and plasma samples were extracted using Acetonitrile. Concentration of the drug and metabolites in brain and in plasma was determined by LC-MS/MS analysis.
After tubes were weighed to calculate brain weight and thawed to room temperature, 1 mL of EtOH (200 Proof) was added to the microcentrifuge tubes containing the harvested right brain hemispheres. 10 μL of 1 µM internal standard (ABG190, a synthetic analog of 1a) was added to each tube and samples were sonicated to homogeneity (∼2 min). Tubes were shaken at 40 min at room temperature (1K RPM) and centrifuged for 8 min at 13K RPM. The supernatant (0.9 mL) was transferred to a new collection tube and 0.5 mL EtOH was added to the pellet for a second round of extraction as described above. 600 μL of the supernatant was combined with the first collection before samples were submitted for LCMS-MS analysis ([Sun et al., 2019]).
300 μL of acetonitrile was added to collected blood samples. 10 μL of 1 µM internal standard (ABG190) was added to each tube and samples were sonicated to homogeneity (∼2 min). Tubes were […] at 13 K RPM for 9 min 300 μL of the supernatant was collected and combined with 500 µL of 5 mM ammonium formate before samples were submitted for LCMS-MS analysis ([Sun et al., 2019]).

The subject of series [5] is N2a695 cells. The series is described as follows: Screening of Aβ production in N2a695 cells (Aβ ELISA of cell supernatants). It is filed as cell-based. The conditions noted are these: 10 µM, N2a695 cells. How it is done:
as §1, §2
Specifically, we exposed N2a695 cells to increasing concentrations of each compound and measured the production of Aβ38, 40, and 42. […] Remarkably, this occurs for all Aβ peptides tested shorter than 40 amino acids (Figure 2C). Moreover, for some compounds that modulate γ-secretase activity most conspicuously at 5 μM, this effect vanishes at 10 μM, relative to controls (Figure 2B, C). […]

As to `Cc1ccccc1Nc1nccc(-c2cncc(NC(=O)c3ccc(C4CCCNC4)cc3)c2)n1` (stereo not drawn) [Compound 1L], the activity at 5 µM is 107% in the series on N2a695 cells [1] (read-out: % Aβ38 of DMSO ctrl), 48% in the series with N2a695 cells [1] (read-out: % Aβ40 of DMSO ctrl) and 43% with N2a695 cells [1] (read-out: % Aβ42 of DMSO ctrl). In addition, the activity at 10 µM is 52% in the series on N2a695 cells [2] (read-out: % Aβ38 of DMSO ctrl), 21% in the series on N2a695 cells [2] (read-out: % Aβ40 of DMSO ctrl) and 17% with N2a695 cells [2] (read-out: % Aβ42 of DMSO ctrl).

Consider `Cc1ccccc1Nc1nccc(-c2cccc(NC(=O)c3ccc(CN4CCN(C)CC4)cc3)c2)n1` [Compound 1a], for which the activity at 5 µM amounted to 105% with N2a695 cells [1] (read-out: % Aβ38 of DMSO ctrl), 57% with N2a695 cells [1] (read-out: % Aβ40 of DMSO ctrl) and 49% in the series on N2a695 cells [1] (read-out: % Aβ42 of DMSO ctrl). In addition, the values for the activity at 10 µM in the series on N2a695 cells [2] (read-out: % Aβ38 of DMSO ctrl), with N2a695 cells [2] (read-out: % Aβ40 of DMSO ctrl) and in the series on N2a695 cells [2] (read-out: % Aβ42 of DMSO ctrl) were 86%, 40% and 35%, respectively.

For the compound `Cc1ccccc1Nc1nccc(-c2cncc(NC(=O)c3ccc(CN4CCNCC4)cc3)c2)n1` [Compound 1b], the activity at 5 µM was determined as 95% with N2a695 cells [1] (read-out: % Aβ38 of DMSO ctrl), 56% in the series on N2a695 cells [1] (read-out: % Aβ40 of DMSO ctrl) and 53% in the series on N2a695 cells [1] (read-out: % Aβ42 of DMSO ctrl). The activity at 10 µM was 61% with N2a695 cells [2] (read-out: % Aβ38 of DMSO ctrl), 34% with N2a695 cells [2] (read-out: % Aβ40 of DMSO ctrl) and 33% with N2a695 cells [2] (read-out: % Aβ42 of DMSO ctrl).

As to `Cc1ccccc1Nc1nccc(-c2cccc(NC(=O)c3ccc(N4CCN(C)CC4)cc3)c2)n1` [Compound 1d], the activity at 5 µM amounted to 60% in the series on N2a695 cells [1] (read-out: % Aβ38 of DMSO ctrl), 34% in the series on N2a695 cells [1] (read-out: % Aβ40 of DMSO ctrl) and 28% in the series with N2a695 cells [1] (read-out: % Aβ42 of DMSO ctrl). The “BACE and γ-secretase cleavage of APP, Aβ levels” value in series [3] is “lower BACE and γ-secretase cleavage of APP”. Also, the activity at 10 µM is 22% with N2a695 cells [2] (read-out: % Aβ38 of DMSO ctrl), 14% in the series with N2a695 cells [2] (read-out: % Aβ40 of DMSO ctrl) and 11% in the series with N2a695 cells [2] (read-out: % Aβ42 of DMSO ctrl).

For the compound `Cc1ccccc1Nc1nccc(-c2cncc(NC(=O)c3ccc(CCN(C)C)cc3)c2)n1` [Compound 1e], the activity at 5 µM in the series on N2a695 cells [1] (read-out: % Aβ38 of DMSO ctrl) came to 99%; with N2a695 cells [1] (read-out: % Aβ40 of DMSO ctrl), 57%; with N2a695 cells [1] (read-out: % Aβ42 of DMSO ctrl), 54%. Further, the activity at 10 µM in the series with N2a695 cells [2] (read-out: % Aβ38 of DMSO ctrl) stood at 91%; in the series on N2a695 cells [2] (read-out: % Aβ40 of DMSO ctrl) it was 46%; with N2a695 cells [2] (read-out: % Aβ42 of DMSO ctrl), 44%.

Take `Cc1ccccc1Nc1nccc(-c2cccc(NC(=O)c3ccc(CCN(C)C)cc3)c2)n1` [Compound 1f]: the activity at 5 µM in the series with N2a695 cells [1] (read-out: % Aβ38 of DMSO ctrl) turned out to be 113%; in the series on N2a695 cells [1] (read-out: % Aβ40 of DMSO ctrl), 52%; in the series on N2a695 cells [1] (read-out: % Aβ42 of DMSO ctrl), 45%. The “BACE and γ-secretase cleavage of APP, Aβ levels” value in series [3] was “lower BACE and γ-secretase cleavage of APP”. In addition, in series [4] (2 months old mice, 4 h post administration), the Brain exposure result is recorded as “high brain exposure”. Further, the concentration at 4 h was determined as 92 ng/g in series [4] (brain, read-out: Brain concentration) and 550 ng/mL in series [4] (plasma, read-out: Plasma concentration). The activity at 10 µM with N2a695 cells [2] (read-out: % Aβ38 of DMSO ctrl) stood at 80%; in the series on N2a695 cells [2] (read-out: % Aβ40 of DMSO ctrl) it was 29%; with N2a695 cells [2] (read-out: % Aβ42 of DMSO ctrl), 26%.

For the compound `Cc1ccccc1Nc1nccc(-c2cncc(NC(=O)c3ccc(CNCC(C)(C)C)cc3)c2)n1` [Compound 1h], the activity at 5 µM in the series on N2a695 cells [1] (read-out: % Aβ38 of DMSO ctrl) is 106%; with N2a695 cells [1] (read-out: % Aβ40 of DMSO ctrl) it was 64%; in the series with N2a695 cells [1] (read-out: % Aβ42 of DMSO ctrl) it was 58%. In addition, the activity at 10 µM was determined as 80% with N2a695 cells [2] (read-out: % Aβ38 of DMSO ctrl), 43% in the series with N2a695 cells [2] (read-out: % Aβ40 of DMSO ctrl) and 43% in the series on N2a695 cells [2] (read-out: % Aβ42 of DMSO ctrl).

Regarding `Cc1ccccc1Nc1nccc(-c2cccc(NC(=O)c3ccc(CN(CC(C)(C)C)C(=O)OC(C)(C)C)cc3)c2)n1` [Compound 1i-Boc], the “Aβ production in the screen (Fig. S1)” value with N2a695 cells [5] is listed as “increase in Aβ production”.
